Test results taken from patent US6618679B2, “Methods for analysis of gene expression” (priority 2000, dated 2003).

Tested on: Hep G2 (human hepatocellular carcinoma)
Experiment: Non-lethal concentration range for chemical exposure of Hep G2 cells
Assay type: cell-based
Experimental: The hepatocyte cell line, Hep G2 (human hepatocellular carcinoma, obtained from the American Type Culture Collection, Rockville Md., ATCC#HB-8065), was used to evaluate the effects of various chemicals on expression of a set of genes known to be involved in cellular toxicological responses. The cells were routinely maintained in T75 flasks in Eagle's MEM medium (with non-essential amino acids, sodium pyruvate, and Earle's salts) and 10% fetal bovine serum at 37° C. in a humidified atmosphere of 5% CO2. The chemicals used in exposure experiments included cadmium chloride (CdCl2) and methyl methane sulfonate (MMS). CdCl2 is a strong inducer of metallothionein, a metal-binding protein, and is known to be carcinogenic and capable of interfering with DNA repair. MMS is an alkylating agent that induces DNA damage. Dilutions of these compounds were prepared from concentrated stocks obtained from Aldrich Chemical Company (Milwaukee, Wis.). Water was used as the solvent control in dosing studies. […] These concentration ranges were empirically determined to not be lethal to cells for the duration of the exposure period. […] Cell number was quantitated using a dye incorporation assay, CyQUANT from Molecular Probes (Eugene, Oreg.).

| Structure (SMILES) | lethality to cells for the duration of the exposure period (final concentrations 10^-4M to 10^-6M CdCl2, 3 hours exposure) | lethality to cells for the duration of the exposure period (final concentrations 0.5 mM to 2 mM MMS, 3 hours exposure) |
| --- | --- | --- |
| [Cl][Cd][Cl] [CdCl2, cadmium chloride] | not be lethal |  |
| COS(C)(=O)=O [MMS, methyl methane sulfonate] |  | not be lethal |
